Where a SMILES comes first, the peptide text is derived from it.
Assays:
[1] = LC-MS analysis of Co(II) binding (alanine scanning analogs); details: 0.5 mM peptide mixed with 0.5 mM CoCl2; judged by change in molecular weight (about 56) and retention time in LC-MS
Description: A mutation was performed to identify the binding properties of wAlb12. […] amino acids of wAlb12 were substituted with alanine and the remaining alanine of wAlb12 was substituted with serine (D1A, A2S, H3A, K4A, S5A, E6A, V7A, A8S, H9A, R10A, F11A, and K12A). In addition, the N-terminal region of wAlb12 was acetylated (Ac-wAlb12). The only N-terminal α-amino group of wAlb12 was acetylated under 70% DCM, 25% acetic anhydride, and 5% triethylamine for 2 h after Fmoc cleavage by 20% piperidine. All of the analogs were synthesized by SPPS, and the purity and molecular weight were confirmed using liquid chromatography-mass spectrometry (LC-MS). The high-performance liquid chromatography (HPLC) gradient program was set up with 5% to 35% buffer B for 15 min, and the molecular weights of the prepared analogs were confirmed using MS in the range of 200 to 1800 m/z.
To verify the binding of peptides to Co(II), HPLC and LC-MS were performed to confirm the retention time and molecular weight. RT-HPLC analyses were performed using Shimadzu 10AD system with a Sunfire® column (C18 5 μm 4.6 mm × 250 mm, Waters, Milford, MA, USA) and a flow rate of 1 mL/min with buffer B (100% acetonitrile containing 0.05% TFA) and buffer A (100% H2O containing 0.05% TFA). The eluted components were monitored at an absorbance of 230 nm with a gradient from 5% to 35% of buffer B for 15 min. […]

in vitro = type: cell-based, rat; details: mouse, RAW 264.7 cells
Description: (§1) RAW 264.7 and HEK 293T cells were cultured at 37 °C under 5% CO2 in 95% DMEM supplemented with 10% FBS and 1% P/S antibiotics. The RAW 264.7 and HEK 293T cells were harvested in 3 mL of DMEM, and centrifugation was performed at 1200× g using the AllegraTM X-12R centrifuge (BECKMAN COULTER). The cell pellet was resuspended in 1 mL of DMEM. The number of cells was counted using a hemocytometer. The cell viability was measured using MTT assay according to the method of Mirzapour-Kouhdasht, Moosavi-Nasab, with a few modifications. The cells were first plated at a density of a 5 × 10^4 cells/well in a 96-well plate. After overnight incubation, the wAlb12 and wAlb12 + Co(II) each dissolved in buffer were used to treat the cells by concentration, which were then incubated for 24 h at 37 °C. Next, 10 µL of 5 mg mL^−1 MTT stock solution was added to each well, and the plate was incubated for 4 h at 37 °C. Next, the medium was removed and 100 µL of DMSO was added to each well to lyse the cells. The treated cells were incubated at 37 °C for 20 min and their absorbance was measured at a wavelength of 600 nm using an ELISA reader (Autobio, Phomo). The percentage viability was calculated using the following formula:Cell viability (%) = [(As) − (Ab)]/[(Ac) − (Ab)] × 100 where As, Ab, and Ac are the absorbance values of the peptide-treated cells, blank, and control samples, respectively.

HEK 293T cells = type: cell-based, human
Description: as §1

| Compound | Binding (adding Co(II)) [1] | viability at 24 h (in vitro) | toxicity to HEK 293T cells (HEK 293T cells) |
| --- | --- | --- | --- |
| Ac-DAHKSEVAHRFK [Ac-wAlb12, wAlb12 with acetylated N-terminal α-amino group] | not bound and No | – | – |
| CC(C)[C@H](NC(=O)[C@H](CCC(=O)O)NC(=O)[C@H](CO)NC(=O)[C@H](CCCCN)NC(=O)[C@H](Cc1c[nH]cn1)NC(=O)[C@H](C)NC(=O)[C@@H](N)CC(=O)O)C(=O)N[C@@H](C)C(=O)N[C@@H](Cc1c[nH]cn1)C(=O)N[C@@H](CCCNC(=N)N)C(=O)N[C@@H](Cc1ccccc1)C(=O)N[C@@H](CCCCN)C(N)=O [wAlb12] (H-DAHKSEVAHRFK-NH2) | – | > 100% | non-toxic |

From PMC8775498, “Development of Cobalt-Binding Peptide Chelate from Human Serum Albumin: Cobalt-Binding Properties and Stability” (International Journal of Molecular Sciences, 2022)
